pIC50: −log10 of the molar value.
System: 677734-321-R-J1-PDC complex spheroid viability
Test: Anticancer human tumor 677734-321-R-J1-PDC patient-derived soft tissue sarcoma cell line growth inhibition [POLQ]
Conditions: for pIC50: curve of first compound; for viability, T/C: stronger effect = lower value; active = viability on the fitted dose curve at most 10% of control; inactive = the rest
Protocol: Multicellular complex tumor spheroid response to Polymerase (POL) inhibitors (novobiocin, ART-558, RP6685) in combination with a variety of drugs and investigational agents in selected tumor cell lines
The POL inhibitors (novobiocin, ART-558, and RP6685) were evaluated both individually and in combination with standard of care and investigational anticancer small molecules within a complex spheroid model of solid tumors. . Complex spheroids include a stromal component modeled by human endothelial cells (HUVEC) and fibroblasts modeled by human mesenchymal stem cells (MSCs). The concentration ranges selected for each drug and investigational agent were based upon clinically achievable concentrations if the clinical Cmax of the agent was known.
Compounds. The drugs and investigational agents: novobiocin (NSC847541), ART-558 (NSC835418), RP-6685 (NSC848927), peposertib (NSC802822), ceralasertib (NSC780249), elimusertib (NSC800525), camonsertib (NSC841442), AZD-1390 (NSC803789), olaparib (NSC753686), talazoparib (NSC767125), rucaparib (NSC756644), sotorasib (NSC818433), MRTX-1133 (NSC836407), SN-38 (NSC673596), topotecan (NSC609699), epotoside (NSC141540), doxorubicin (NSC123127), gemcitabine (NSC613327), 5-fluorouracil (NSC19893), paclitaxel (NSC125973), vemurafenib (NSC761431), MSA-2 (NSC828583), SN-011 (NSC837082), adavosertib (NSC754352), prexasertib (NSC758257), carboplatin (NSC241240) and oxaliplatin (NSC266046), were obtained from the National Cancer Institute (NCI) Developmental Therapeutics Program Chemical Repository (21). The FDA-approved anticancer drug set is available from the Developmental Therapeutics Program at https://dtp.cancer.gov/organization/dscb/obtaining/. […] The stock solutions were prepared in dimethyl sulfoxide (DMSO, Sigma-Aldrich, St. Louis, MO, cat. D2650), except for the platinum compounds which were prepared in saline (Quality Biological, Gaithersburg, MD, cat. 114-055-101), at 800-fold the tested concentration and stored at -70 degrees C prior to their use. All drugs and investigational agents were tested over a range starting from a high concentration at or near the clinical Cmax and decreasing in half-log increments. If the clinical Cmax for an agent had not been determined, the highest concentration tested was 10 microM, except for SN-38, which was tested at a high concentration of 1 microM.
Cell Culture. All cells were maintained in an incubator at 37 degrees C and 5% CO2 with 95% humidity. The PDC lines were cultured according to standard operating procedures established by the NCI PDMR (https://pdmr.cancer.gov). Table 3 of the manuscript, lists the cell lines along with the number of the three cell types plated to form the mct-spheroids and media for tumor cell growth. After thawing, all PDC lines, except 997537-175-T-J1-PDC and 415267-285-R-J2-PDC, were cultured in Matrigel-coated flasks prepared with a working solution of 1X Ham's F-12 nutrient mix, without supplementation (Thermo Fisher Scientific, cat. 11765054), 100 U/mL penicillin-streptomycin (Thermo Fisher Scientific, cat. 15140122), and 2.5% Matrigel (Corning Inc., Corning, NY, cat. 354248) for the first three passages. The two PDC lines 997537-175-T-J1-PDC and 415267-285-R-J2-PDC were cultured on uncoated flasks. The 857933-349-R-J2-PDC line was cultured in 6C/Colon 1B media containing advanced DMEM/F-12 (Thermo Fisher Scientific, cat. 12634028), 10 mM HEPES (Thermo Fisher Scientific, cat. 15630080), 1X GlutaMAX supplement (Thermo Fisher Scientific, cat. 35050061), 0.1 mg/mL primocin (InvivoGen, San Diego, CA, cat. ant-pm-2), 10% defined fetal bovine serum, heat inactivated (HyClone Laboratories Inc., Logan, UT, cat. SH30070.03HI), 50% L-WRN conditioned media (ATCC, cat. CRL-3276), 1.25 mM N-Acetyl-L-cysteine (Sigma-Aldrich, cat. A9165), 10 mM nicotinamide (Sigma-Aldrich, cat. N0636), 1X B-27 supplement (Thermo Fisher Scientific, cat. 17504044), 1X N-2 supplement (Thermo Fisher Scientific, cat. […]

[1] = second compound 0.0316 µM, first compound 0.0316 µM
[2] = second compound 0.0316 µM, first compound 0.1 µM
[3] = second compound 0.0316 µM, first compound 0.316 µM
[4] = second compound 0.0316 µM, first compound 1 µM
[5] = second compound 0.0316 µM, first compound 3.16 µM
[6] = second compound 0.0316 µM, first compound 10 µM
[7] = second compound 0.1 µM, first compound 0.0316 µM
[8] = second compound 0.1 µM, first compound 0.1 µM
[9] = second compound 0.1 µM, first compound 0.316 µM
[10] = second compound 0.1 µM, first compound 1 µM
[11] = second compound 0.1 µM, first compound 3.16 µM
[12] = second compound 0.1 µM, first compound 10 µM
[13] = second compound 0.316 µM, first compound 0.0316 µM
[14] = second compound 0.316 µM, first compound 0.1 µM
[15] = second compound 0.316 µM, first compound 0.316 µM
[16] = second compound 0.316 µM, first compound 1 µM
[17] = second compound 0.316 µM, first compound 3.16 µM
[18] = second compound 0.316 µM, first compound 10 µM
[19] = second compound 1 µM, first compound 0.0316 µM
[20] = second compound 1 µM, first compound 0.1 µM
[21] = second compound 1 µM, first compound 0.316 µM
[22] = second compound 1 µM, first compound 1 µM
[23] = second compound 1 µM, first compound 3.16 µM
[24] = second compound 1 µM, first compound 10 µM
[25] = second compound 3.16 µM, first compound 0.0316 µM
[26] = second compound 3.16 µM, first compound 0.1 µM
[27] = second compound 3.16 µM, first compound 0.316 µM
[28] = second compound 3.16 µM, first compound 1 µM
[29] = second compound 3.16 µM, first compound 3.16 µM
[30] = second compound 3.16 µM, first compound 10 µM
[31] = second compound 10 µM, first compound 0.0316 µM
[32] = second compound 10 µM, first compound 0.1 µM
[33] = second compound 10 µM, first compound 0.316 µM
[34] = second compound 10 µM, first compound 1 µM
[35] = second compound 10 µM, first compound 3.16 µM
[36] = second compound 10 µM, first compound 10 µM
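Also: spheroids exposed to compounds for one week.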
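For viability, T/C in this document: 100% = vehicle DMSO treated spheroids.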

O=C(c1cc(Cc2n[nH]c(=O)c3ccccc23)ccc1F)N1CCN(C(=O)C2CC2)CC1 + COC1C(OC(N)=O)C(O)C(Oc2ccc3c(O)c(NC(=O)c4ccc(O)c(CC=C(C)C)c4)c(=O)oc3c2C)OC1(C)C
< 5.00: pIC50 (second compound 0.0316 µM) | pIC50 (second compound 0.1 µM) | pIC50 (second compound 0.316 µM) | pIC50 (second compound 1 µM) | pIC50 (second compound 3.16 µM) | pIC50 (second compound 10 µM)
inactive: viability, T/C [1] 108% | viability, T/C [2] 105% | viability, T/C [3] 103% | viability, T/C [4] 110% | viability, T/C [5] 102% | viability, T/C [6] 86.4% | viability, T/C [7] 104% | viability, T/C [8] 112% | viability, T/C [9] 101% | viability, T/C [10] 104% | viability, T/C [11] 107% | viability, T/C [12] 79.6% | viability, T/C [13] 112% | viability, T/C [14] 111% | viability, T/C [15] 104% | viability, T/C [16] 111% | viability, T/C [17] 111% | viability, T/C [18] 78.1% | viability, T/C [19] 108% | viability, T/C [20] 105% | viability, T/C [21] 111% | viability, T/C [22] 99.9% | viability, T/C [23] 107% | viability, T/C [24] 81.2% | viability, T/C [25] 117% | viability, T/C [26] 111% | viability, T/C [27] 113% | viability, T/C [28] 103% | viability, T/C [29] 100% | viability, T/C [30] 87.3% | viability, T/C [31] 118% | viability, T/C [32] 106% | viability, T/C [33] 108% | viability, T/C [34] 112% | viability, T/C [35] 103% | viability, T/C [36] 88%

CCc1cc2c(N3CCc4c(cc(Cn5ccnc5)cc4-c4cn(C)nc4C(F)(F)F)C3=O)cc(C)nc2c(OC)n1 + Cc1cccc(N(C)C(=O)C2C(O)CCN2c2nc(C)cc(C(F)(F)F)c2C#N)c1
5.44: pIC50 (second compound 3.16 µM)
5.27: pIC50 (second compound 0.1 µM)
5.37: pIC50 (second compound 0.316 µM)
5.64: pIC50 (second compound 10 µM)
5.29: pIC50 (second compound 1 µM)
5.19: pIC50 (second compound 0.0316 µM)
inactive: viability, T/C [1] 104% | viability, T/C [2] 116% | viability, T/C [3] 84% | viability, T/C [4] 94% | viability, T/C [5] 65.5% | viability, T/C [6] 39.3% | viability, T/C [7] 97.3% | viability, T/C [8] 94.7% | viability, T/C [9] 99.7% | viability, T/C [10] 75.6% | viability, T/C [11] 66.3% | viability, T/C [12] 33.1% | viability, T/C [13] 92.4% | viability, T/C [14] 102% | viability, T/C [15] 98.8% | viability, T/C [16] 81.8% | viability, T/C [17] 58.8% | viability, T/C [18] 28.5% | viability, T/C [19] 111% | viability, T/C [20] 106% | viability, T/C [21] 92.2% | viability, T/C [22] 88.1% | viability, T/C [23] 62.7% | viability, T/C [24] 31.6% | viability, T/C [25] 101% | viability, T/C [26] 98.6% | viability, T/C [27] 94% | viability, T/C [28] 82.3% | viability, T/C [29] 52.1% | viability, T/C [30] 31.8% | viability, T/C [31] 92.5% | viability, T/C [32] 76.1% | viability, T/C [33] 70.4% | viability, T/C [34] 58.4% | viability, T/C [35] 48.1% | viability, T/C [36] 34.1%

From PubChem BioAssay AID1963842 (Molecular Pharmacology Branch, DTP, NCI, 2024)
